Where “and” joins values, the source holds several entries; their conditions need not be identical. Identical values can stand only once. Toxic doses and inconclusive results are not listed.
Tested on: L1210 leukemia ip in BDF1 mice, survival T/C
Experiment: NCI In Vivo Anticancer Drug Screen. Data for tumor model L1210 Leukemia (intraperitoneal) in B6D2F1 (BDF1) mice
Details: endpoint: mean survival time, higher = longer survival
How it was run: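 Value reflects the ratio of survival in compound-treated mice to survival in vehicle-treated controls, with both groups carrying the same transplanted tumor.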

[1] = dose: 100.0 mg/kg/injection, schedule: Q04DX002 (ip), vehicle: saline
[2] = dose: 200.0 mg/kg/injection, schedule: Q04DX002 (ip), vehicle: saline
[3] = dose: 400.0 mg/kg/injection, schedule: Q04DX002 (ip), vehicle: saline
[4] = dose: 100.0 mg/kg/injection, schedule: Q01DX001 (ip), vehicle: Klucel (hydroxypropylcellulose) (HPC)
[5] = dose: 200.0 mg/kg/injection, schedule: Q01DX001 (ip), vehicle: Klucel (hydroxypropylcellulose) (HPC)
[6] = dose: 400.0 mg/kg/injection, schedule: Q01DX001 (ip), vehicle: Klucel (hydroxypropylcellulose) (HPC)
[7] = dose: 100.0 mg/kg/injection, schedule: Q04DX002 (ip), vehicle: Klucel (hydroxypropylcellulose) (HPC)
[8] = dose: 200.0 mg/kg/injection, schedule: Q04DX002 (ip), vehicle: Klucel (hydroxypropylcellulose) (HPC)
[9] = dose: 400.0 mg/kg/injection, schedule: Q04DX002 (ip), vehicle: Klucel (hydroxypropylcellulose) (HPC)
[10] = dose: 100.0 mg/kg/injection, schedule: Q04DX003 (ip), vehicle: Klucel (hydroxypropylcellulose) (HPC)
[11] = dose: 400.0 mg/kg/injection, schedule: Q04DX003 (ip), vehicle: Klucel (hydroxypropylcellulose) (HPC)
[12] = dose: 50.0 mg/kg/injection, schedule: Q01DX009 (ip), vehicle: saline with Tween-80
[13] = dose: 100.0 mg/kg/injection, schedule: Q01DX009 (ip), vehicle: saline with Tween-80
[14] = dose: 200.0 mg/kg/injection, schedule: Q01DX009 (ip), vehicle: saline with Tween-80
[15] = dose: 100.0 mg/kg/injection, schedule: Q01DX001 (ip), vehicle: saline
[16] = dose: 100.0 mg/kg/injection, schedule: Q01DX009 (ip), vehicle: saline
[17] = dose: 200.0 mg/kg/injection, schedule: Q01DX001 (ip), vehicle: saline
[18] = dose: 100.0 mg/kg/injection, schedule: Q01DX009 (ip), vehicle: Klucel (hydroxypropylcellulose) (HPC)
[19] = dose: 200.0 mg/kg/injection, schedule: Q01DX009 (ip), vehicle: Klucel (hydroxypropylcellulose) (HPC)
[20] = dose: 200.0 mg/kg/injection, schedule: Q04DX003 (ip), vehicle: Klucel (hydroxypropylcellulose) (HPC)

With `O=C(NCCO)C(=O)NCCO` the T/C [1] was 115 % of control, the T/C [2] was 110 % of control and the T/C [3] was 96 % of control.
For `CN(C)c1ccc(-c2cc(NS(=O)(=O)c3ccccc3)ccc2NS(=O)(=O)c2ccccc2)cc1`, the T/C [4] was 96 % of control, the T/C [5] was 94 % of control and the T/C [6] was 96 % of control.
With `O=C(C[n+]1ccc2ccccc2c1)c1cccc([N+](=O)[O-])c1` the T/C (dose: 100.0 mg/kg/injection, schedule: Q04DX003 (ip), vehicle: saline with Tween-80) was 105 % of control, the T/C (dose: 200.0 mg/kg/injection, schedule: Q04DX003 (ip), vehicle: saline with Tween-80) was 97 % of control and the T/C (dose: 400.0 mg/kg/injection, schedule: Q04DX003 (ip), vehicle: saline with Tween-80) was 100 % of control.
In the case of `Clc1ccc2c(c1)C1=NCCCN1c1cc(Cl)ccc1-2`, the T/C (dose: 2.5 mg/kg/injection, schedule: Q01DX009 (ip), vehicle: saline) is reported as 105 % of control, the T/C (dose: 2.5 mg/kg/injection, schedule: Q04DX002 (ip), vehicle: saline) is reported as 100 % of control and the T/C (dose: 2.5 mg/kg/injection, schedule: Q04DX003 (ip), vehicle: Klucel (hydroxypropylcellulose) (HPC)) is reported as 102 % of control. The T/C (dose: 5.0 mg/kg/injection, schedule: Q01DX009 (ip), vehicle: saline) was 97 % of control, the T/C (dose: 5.0 mg/kg/injection, schedule: Q04DX002 (ip), vehicle: saline) was 96 % of control and the T/C (dose: 5.0 mg/kg/injection, schedule: Q04DX003 (ip), vehicle: Klucel (hydroxypropylcellulose) (HPC)) was 104 % of control. The T/C (dose: 10.0 mg/kg/injection, schedule: Q01DX009 (ip), vehicle: saline) was 97 % of control, the T/C (dose: 10.0 mg/kg/injection, schedule: Q04DX002 (ip), vehicle: saline) was 111 % of control and the T/C (dose: 10.0 mg/kg/injection, schedule: Q04DX003 (ip), vehicle: Klucel (hydroxypropylcellulose) (HPC)) was 104 % of control. The T/C (dose: 20.0 mg/kg/injection, schedule: Q04DX003 (ip), vehicle: Klucel (hydroxypropylcellulose) (HPC)) was 91 % of control.
With `NC(=O)C1C2CC3OC(=O)C1C3C2` (stereo not given) the T/C (dose: 100.0 mg/kg/injection, schedule: Q04DX003 (ip), vehicle: saline) was 93 % of control and 103 % of control, the T/C (dose: 200.0 mg/kg/injection, schedule: Q04DX003 (ip), vehicle: saline) was 102 % of control and 100 % of control and the T/C (dose: 400.0 mg/kg/injection, schedule: Q04DX003 (ip), vehicle: saline) was 96 % of control and 88 % of control.
For `CCCCCCCCSC(=S)S.[Fe]`, the T/C [7] was 88 % of control, the T/C [8] was 95 % of control and the T/C [9] was 91 % of control.
With `O=C(/C=C(\CN1CCCCC1)c1ccccc1)c1ccccc1` the T/C [10] was 96 % of control and the T/C [11] was 96 % of control.
`CC(=O)Nc1ccc(C(=O)O)cc1` was tested, and the T/C [7] was 88 % of control, the T/C [8] was 92 % of control and the T/C [9] was 111 % of control.
With `CC(=O)C1CCC2C3CCC4=CC(=O)CC4(C)C3CCC12C` (stereo not given) the T/C [12] was 113 % of control, the T/C [13] was 105 % of control and the T/C [14] was 90 % of control.
For `O=P(O)(c1ccccc1)c1ccccc1`, the T/C [7] was 102 % of control and 86 % of control, the T/C [8] was 93 % of control and 89 % of control and the T/C [9] was 96 % of control.
In the case of `CC1OCCCCO1`, the T/C (dose: 50.0 mg/kg/injection, schedule: Q01DX001 (ip), vehicle: saline) is reported as 106 % of control, the T/C [15] is reported as 102 % of control and the T/C [16] is reported as 96 % of control and 112 % of control. The T/C [1] was 108 % of control and 86 % of control, the T/C [17] was 103 % of control and the T/C (dose: 200.0 mg/kg/injection, schedule: Q01DX009 (ip), vehicle: saline) was 102 % of control and 108 % of control. The T/C [2] was 93 % of control and 100 % of control, the T/C (dose: 400.0 mg/kg/injection, schedule: Q01DX009 (ip), vehicle: saline) was 98 % of control and 112 % of control and the T/C [3] was 93 % of control and 95 % of control.
For `Cc1cc(C(=O)C=[N+]=[N-])c(CN2C(=O)c3ccccc3C2=O)c(=O)n1C`, the T/C (dose: 100.0 mg/kg/injection, schedule: Q04DX003 (ip), vehicle: other) was 100 % of control, the T/C (dose: 200.0 mg/kg/injection, schedule: Q04DX003 (ip), vehicle: other) was 93 % of control and the T/C (dose: 400.0 mg/kg/injection, schedule: Q04DX003 (ip), vehicle: other) was 94 % of control.
`CC1(C)CC2(OC2c2cccc([N+](=O)[O-])c2)C(=O)c2ccccc21` (stereo not given) was tested, and the T/C [4] was 90 % of control, the T/C [5] was 95 % of control and the T/C [6] was 92 % of control.
For `NNC(=O)c1ccccc1Nc1ccc(Br)cc1`, the T/C [18] was 94 % of control, the T/C [10] was 94 % of control and the T/C [19] was 93 % of control. For the same molecule, the T/C [20] was 94 % of control, the T/C (dose: 400.0 mg/kg/injection, schedule: Q01DX009 (ip), vehicle: Klucel (hydroxypropylcellulose) (HPC)) was 86 % of control and the T/C [11] was 96 % of control.
In the case of `Cc1c(CNc2ccc(Cl)c(C(=O)NC(CC(=O)O)C(=O)O)c2)ccc2nc(N)nc(N)c12` (stereo not given), the T/C (dose: 1.5 mg/kg/injection, schedule: Q01DX009 (ip), vehicle: Klucel (hydroxypropylcellulose) (HPC)) is reported as 110 % of control, the T/C (dose: 3.0 mg/kg/injection, schedule: Q01DX009 (ip), vehicle: Klucel (hydroxypropylcellulose) (HPC)) is reported as 115 % of control and the T/C (dose: 3.13 mg/kg/injection, schedule: Q01DX009 (ip), vehicle: Klucel (hydroxypropylcellulose) (HPC)) is reported as 120 % of control. For the same molecule, the T/C (dose: 6.0 mg/kg/injection, schedule: Q01DX009 (ip), vehicle: Klucel (hydroxypropylcellulose) (HPC)) was 110 % of control and 92 % of control, the T/C (dose: 12.5 mg/kg/injection, schedule: Q01DX009 (ip), vehicle: Klucel (hydroxypropylcellulose) (HPC)) was 160 % of control and the T/C (dose: 50.0 mg/kg/injection, schedule: Q01DX009 (ip), vehicle: Klucel (hydroxypropylcellulose) (HPC)) was 168 % of control. For the same molecule, the T/C [18] was 97 % of control and 100 % of control, the T/C [16] was 162 % of control and the T/C (dose: 267.0 mg/kg/injection, schedule: Q01DX001 (ip), vehicle: saline) was 122 % of control.
For `C/C=C/C=C\COC(=O)CC`, the T/C [1] was 103 % of control, the T/C [2] was 100 % of control and the T/C [3] was 103 % of control.
`O=C(CCCC(=O)N/N=C/c1cccc2ccccc12)N/N=C/c1cccc2ccccc12` was tested, and the T/C (dose: 50.0 mg/kg/injection, schedule: Q01DX001 (ip), vehicle: other) was 93 % of control, the T/C (dose: 100.0 mg/kg/injection, schedule: Q01DX001 (ip), vehicle: other) was 91 % of control and the T/C (dose: 200.0 mg/kg/injection, schedule: Q01DX001 (ip), vehicle: other) was 91 % of control. For the same molecule, the T/C (dose: 400.0 mg/kg/injection, schedule: Q01DX001 (ip), vehicle: other) was 87 % of control.
For `CSc1ccc(OC(C)=O)cc1`, the T/C [12] was 94 % of control, the T/C [13] was 91 % of control and the T/C [14] was 102 % of control.
With `O=C1C=CC(=Nc2ccccc2Cl)O1` the T/C [13] was 95 % of control, the T/C [14] was 93 % of control and the T/C (dose: 400.0 mg/kg/injection, schedule: Q01DX009 (ip), vehicle: saline with Tween-80) was 94 % of control.
For `O=c1c(-c2ccccc2)c(S)sc(S)c1-c1ccccc1`, the T/C (dose: 100.0 mg/kg/injection, schedule: Q04DX002 (ip), vehicle: gum acacia) was 93 % of control, the T/C (dose: 200.0 mg/kg/injection, schedule: Q04DX002 (ip), vehicle: gum acacia) was 104 % of control and the T/C (dose: 400.0 mg/kg/injection, schedule: Q04DX002 (ip), vehicle: gum acacia) was 93 % of control.
With `Nc1cccc2cn[nH]c12` the T/C (dose: 100.0 mg/kg/injection, schedule: Q01DX009 (ip), vehicle: other) was 104 % of control and the T/C (dose: 200.0 mg/kg/injection, schedule: Q01DX009 (ip), vehicle: other) was 112 % of control.
With `C/C(=C1/SC(=S)NC1=O)c1ccccc1O` the T/C [15] was 104 % of control and the T/C [17] was 104 % of control.
In the case of `S=P(NCCCCCCCCNP(=S)(N1CC1)N1CC1)(N1CC1)N1CC1`, the T/C (dose: 100.0 mg/kg/injection, schedule: Q01DX001 (ip), vehicle: carboxymethylcellulose (CMC)) is reported as 102 % of control, the T/C (dose: 200.0 mg/kg/injection, schedule: Q01DX001 (ip), vehicle: carboxymethylcellulose (CMC)) is reported as 119 % of control and the T/C (dose: 400.0 mg/kg/injection, schedule: Q01DX001 (ip), vehicle: carboxymethylcellulose (CMC)) is reported as 107 % of control.
For `[N-]=[N+]=C1Cc2ccccc2C1=O`, the T/C [18] was 103 % of control, the T/C [10] was 102 % of control and the T/C [19] was 100 % of control. For the same molecule, the T/C [20] was 105 % of control and the T/C [11] was 92 % of control.
With `C#CC(CC)(CC)NC(=O)NC(C)(C)C` the T/C [7] was 98 % of control, the T/C [8] was 102 % of control and the T/C [9] was 86 % of control.
For `O=c1ccn(CCC(COCc2ccccc2)COCc2ccccc2)c(=O)[nH]1`, the T/C [10] was 96 % of control, the T/C [20] was 101 % of control and the T/C [11] was 101 % of control.

From PubChem BioAssay AID248 (DTP/NCI, 2004)
